Reference: patent US10130651B2, “RNAi Therapy for Hepatitis B Virus Infection” (Arrowhead Pharmaceuticals, Inc., priority 2015, dated 2018)

Key:
Assay type in all cases: in vivo, NOD-SCID mice (pHBV model)
HBsAg, Hepatitis B Virus [1] = assay: Serum HBsAg in pHBV mice after MLP delivery peptide plus AD01385 and/or AD01386 (Example 10, Tables 17, 18); conditions: 3 mg/kg MLP delivery peptide plus […] of each RNAi trigger; for Mean HBsAg in serum: single IV
HBsAg, Hepatitis B Virus [2] = assay: as above; conditions: 3 mg/kg MLP delivery peptide plus […] of each RNAi trigger; for Mean HBsAg in serum: single IV; remark: listed apart in the source
Procedure: At day −28, 6 to 8 week old female NOD.CB17-Prkdscid/NcrCrl (NOD-SCID) mice were transiently transfected in vivo with MC-HBV 1.3 by hydrodynamic tail vein injection as described.
CDM-NAG was added to MLP, SEQ ID NO: 650 (GIL MLP, L-form), in a 250 mM HEPES-buffered aqueous solution at a 5:1 (w/w) ratio at room temperature and incubated for 30 min to yield MLP delivery peptide. The reaction mixture was adjusted to pH 9.0 with 4 M NaOH. The extent of the reaction was assayed using 2,4,6-trinitrobenzene-sulfonic acid and determined to be >95%. MLP delivery peptide was purified by tangential flow in 10 mM bicarbonate buffer, pH 9.0, to which 10% dextran (w/w) was added. The final purified material was lyophilized.
5 mg lyophilized MLP delivery peptide was resuspended with 1 mL water. MLP delivery peptide was then combined with HBV RNAi triggers (AD01385 or AD01386) at the various dose levels.
At Day 1, each mouse was given a single IV administration via tail vein of 200 μl per 20 gram body weight of saline containing MLP delivery peptide+HBV RNAi triggers.
At various time points, before and after administration of MLP delivery peptide+HBV RNAi triggers, serum HBsAg and serum HBV DNA were measured. The HBsAg level in serum for each animal at a time point was divided by the pre-treatment level in that animal in order to determine the ratio of HBsAg in serum “normalized to pre-treatment”. The HBV DNA level in serum for each group at a time point was also divided by the pre-treatment level in that group in order to determine the ratio of HBV DNA in serum “normalized to pre-treatment”. In order to account for non-treatment related decline in expression of MC-HBV 1.3 or pHBV 1.3.—the “normalized to pre-treatment” ratio for an individual animal at a time point was then divided by the average “normalized to pre-treatment” ratio of all mice in the saline control group at the same time point to obtain the ratio of HBsAg, or HBV DNA, in serum “normalized to pre-treatment and control”.
Mice were anesthetized with 2-3% isoflurane and blood samples were collected from the submandibular area into serum separation tubes (Sarstedt AG & Co., Nümbrecht, Germany). Blood was allowed to coagulate at ambient temperature for 20 min. The tubes were centrifuged at 8,000×g for 3 min to separate the serum and stored at 4° C.
Serum Hepatitis B surface antigen (HBsAg) and Serum HBV DNA levels were measured as described.

[3] = system: HBV DNA, Hepatitis B Virus; assay: Serum HBV DNA in pHBV mice after MLP delivery peptide plus AD01385 and/or AD01386 (Example 10, Tables 19, 20); conditions: 3 mg/kg MLP delivery peptide plus […] of each RNAi trigger; for Mean HBV DNA in serum: single IV

Substance | Mean HBsAg in serum (HBsAg, Hepatitis B Virus [1]; day 8) | Mean HBsAg in serum (HBsAg, Hepatitis B Virus [1]; day 15) | Mean HBsAg in serum (HBsAg, Hepatitis B Virus [1]; day 29) | Mean HBsAg in serum (HBsAg, Hepatitis B Virus [1]; day −2 (pre-dose)) | HBsAg in serum (mean ± SD) (normalized to pre-dose and saline control group) (HBsAg, Hepatitis B Virus [1]; day 36) | HBsAg in serum (mean ± SD) (normalized to pre-dose and saline control group) (HBsAg, Hepatitis B Virus [1]; day −2 (pre-dose)) | Mean HBsAg in serum (HBsAg, Hepatitis B Virus [2]; day 5) | Mean HBsAg in serum (HBsAg, Hepatitis B Virus [2]; day 22) | Mean HBsAg in serum (HBsAg, Hepatitis B Virus [2]; day 36) | HBsAg in serum (mean ± SD) (normalized to pre-dose and saline control group) (HBsAg, Hepatitis B Virus [2]; day 5) | HBsAg in serum (mean ± SD) (normalized to pre-dose and saline control group) (HBsAg, Hepatitis B Virus [2]; day 8) | HBsAg in serum (mean ± SD) (normalized to pre-dose and saline control group) (HBsAg, Hepatitis B Virus [2]; day 15) | HBsAg in serum (mean ± SD) (normalized to pre-dose and saline control group) (HBsAg, Hepatitis B Virus [2]; day 22) | HBsAg in serum (mean ± SD) (normalized to pre-dose and saline control group) (HBsAg, Hepatitis B Virus [2]; day 29) | Mean HBV DNA in serum ([3]; day 5) | Mean HBV DNA in serum ([3]; day 8) | Mean HBV DNA in serum ([3]; day 15) | Mean HBV DNA in serum ([3]; day 22) | Mean HBV DNA in serum ([3]; day 29) | Mean HBV DNA in serum ([3]; day 36) | also measured
AD01385: duplex AM02315-AS/AM02319-SS (TEG) (antisense TAUGAUAAAACGCCGCAGATT; sense UAUUCUGCGGCGUUUUAUCAUAT; siRNA; TEG, chemistry not fully specified) | 1905 ± 1232 ng/mL | 2309 ± 1315 ng/mL | 2418 ± 1470 ng/mL | 7218 ± 4071 ng/mL | 0.592 ± 0.140 | 1.000 ± 0.000 | 878 ± 697 ng/mL | 2163 ± 1255 ng/mL | 2067 ± 870 ng/mL | 0.108 ± 0.026 | 0.282 ± 0.030 | 0.665 ± 0.135 | 0.589 ± 0.109 | 0.660 ± 0.175 | 9.84 × 10^6 copies/mL | 1.64 × 10^7 copies/mL | 7.69 × 10^7 copies/mL | 7.60 × 10^7 copies/mL | 7.69 × 10^7 copies/mL | 6.91 × 10^7 copies/mL | Mean HBV DNA in serum ([3]; day −2 (pre-dose)): 2.04 × 10^8 copies/mL; Mean HBV DNA in serum (normalized to pre-dose and saline control group) ([3]; day 5): 0.050 ± 0.000; Mean HBV DNA in serum (normalized to pre-dose and saline control group) ([3]; day 8): 0.087 ± 0.020; Mean HBV DNA in serum (normalized to pre-dose and saline control group) ([3]; day 15): 0.474 ± 0.029; Mean HBV DNA in serum (normalized to pre-dose and saline control group) ([3]; day 22): 0.510 ± 0.074; Mean HBV DNA in serum (normalized to pre-dose and saline control group) ([3]; day 29): 0.571 ± 0.034; Mean HBV DNA in serum (normalized to pre-dose and saline control group) ([3]; day 36): 0.582 ± 0.040; Mean HBV DNA in serum (normalized to pre-dose and saline control group) ([3]; day −2 (pre-dose)): 1.000 ± 0.000
AD01386: duplex AM02312-AS/AM02320-SS (C6) (antisense TACCAAUUUAUGCCUACAGTT; sense UAUCUGUAGGCAUAAAUUGGUAT; siRNA; C6, chemistry not fully specified) | 109 ± 120 ng/mL | 273 ± 321 ng/mL | 1627 ± 1487 ng/mL | 6219 ± 5606 ng/mL | 0.808 ± 0.151 | 1.000 ± 0.000 | 125 ± 98 ng/mL | 738 ± 670 ng/mL | 2252 ± 1565 ng/mL | 0.021 ± 0.007 | 0.016 ± 0.008 | 0.078 ± 0.027 | 0.237 ± 0.041 | 0.526 ± 0.045 | 4.42 × 10^6 copies/mL | 2.37 × 10^6 copies/mL | 1.04 × 10^8 copies/mL | 4.94 × 10^7 copies/mL | 1.04 × 10^8 copies/mL | 9.53 × 10^7 copies/mL | Mean HBV DNA in serum ([3]; day −2 (pre-dose)): 2.24 × 10^8 copies/mL; Mean HBV DNA in serum (normalized to pre-dose and saline control group) ([3]; day 5): 0.020 ± 0.002; Mean HBV DNA in serum (normalized to pre-dose and saline control group) ([3]; day 8): 0.011 ± 0.002; Mean HBV DNA in serum (normalized to pre-dose and saline control group) ([3]; day 15): 0.153 ± 0.004; Mean HBV DNA in serum (normalized to pre-dose and saline control group) ([3]; day 22): 0.303 ± 0.048; Mean HBV DNA in serum (normalized to pre-dose and saline control group) ([3]; day 29): 0.710 ± 0.080; Mean HBV DNA in serum (normalized to pre-dose and saline control group) ([3]; day 36): 0.728 ± 0.022; Mean HBV DNA in serum (normalized to pre-dose and saline control group) ([3]; day −2 (pre-dose)): 1.000 ± 0.000
